{"source": "patent US7413851B2", "about": "“Nucleophosmin directed diagnostics and therapeutics for multidrug resistant neoplastic disease” (Aurelium Biopharma, Inc., priority 2002, dated 2008)", "key": {"[1]": {"test_system": "antigen-positive E3 cell line", "settings": "cited from earlier work"}, "[2]": {"test_system": "hematological tumor cells", "test": "Nucleophosmin vaccination before injection of hematological tumor cells", "assay_type": "in vivo", "settings": "mice vaccinated prior to injection of tumor cells vs not vaccinated"}, "[3]": {"settings": "anti-CD19 antibody immunoconjugate vs free Ida; read-out: activities; cited from earlier work"}, "E3 target cells": {"test_system": "E3 target cells", "settings": "cited from earlier work"}, "NB4 cell line": {"test_system": "NB4 cell line", "test": "Cytotoxicity of Ara-C, MTT staining of viable cells", "assay_type": "cell-based", "settings": "0 to 1 mM, 72 hours", "experimental": "The cytotoxicity of cytosine-β-D-arabinoside (Ara-C) against CEM, HL60 and NB4 cell lines was examined. Cells were seeded in 96 well plates at 1.5×10^4 cells/well in RPMI1640, 10% FBS, 1 mM HEPES or α-MEM, 10% FBS for HL60 and NB4 or CEM, respectively, with varying concentrations of Ara-C (0 to 1 mM). Cytotoxicity was assessed after 72 hours by staining the viable cells with MTT."}}, "data": [{"molecule": "O=c1[nH]c(=O)n([C@H]2C[C@H](O)[C@@H](CO)O2)cc1F", "note": "[FUDR, 5-fluoro-2′-deoxyuridine]", "values": [{"measurement": "IC50", "setting": "[1]", "result": 0.4, "unit": "nM"}]}, {"molecule": "nucleophosmin: purified full length murine nucleophosmin protein used as vaccine antigen, optionally with adjuvant", "values": [{"measurement": "tumor size", "setting": "[2]", "result": "smaller"}]}, {"molecule": "CC(=O)[C@]1(O)Cc2c(O)c3c(c(O)c2[C@@H](O[C@H]2C[C@H](N)[C@H](O)[C@H](C)O2)C1)C(=O)c1ccccc1C3=O", "note": "[Ida, Idarubicin]", "values": [{"measurement": "IC50", "setting": "[3]", "result": 12, "unit": "nM"}, {"measurement": "IC50", "setting": "E3 target cells", "result": 120, "unit": "nM"}]}, {"molecule": "Nc1ccn([C@@H]2O[C@H](CO)[C@@H](O)[C@@H]2O)c(=O)n1", "note": "[Ara-C, cytosine-β-D-arabinoside]", "values": [{"measurement": "cytotoxicity against NB4 (FIG. 14)", "setting": "NB4 cell line", "result": "resistance"}]}]}
